Literature values as cited in PMC10766353, “Oral FXIIa inhibitor KV998086 suppresses FXIIa and single chain FXII mediated kallikrein kinin system activation” (Frontiers in Pharmacology, 2023).
Like-named read-outs stand apart in the source and are kept apart here.

Columns and labels:
HAE attacks [1] = test system: HAE attacks; set-up: method as in Craig et al., 2023; details: six-month study, ref Craig et al., 2023
HAE attacks [2] = test system: HAE attacks; set-up: method as in Banerji et al., 2018; details: 26-week phase 3 study; ref Banerji et al., 2018

garadacimab: a monoclonal antibody that inhibits FXIIa
HAE attack reduction (HAE attacks [1]; monthly administration): 87%
patients attack free (HAE attacks [1]): 62%

B1: lanadelumab: monoclonal antibody PKa inhibitor (antibody, chains of the INN, looked up, V domains shown)
VH: EVQLLESGGGLVQPGGSLRLSCAASGFTFSHYIMMWVRQAPGKGLEWVSGIYSSGGITVYADSVKGRFTISRDNSKNTLYLQMNSLRAEDTAVYYCAYRRIGVPRRDEFDIWGQGTMVTVSS
VL: DIQMTQSPSTLSASVGDRVTITCRASQSISSWLAWYQQKPGKAPKLLIYKASTLESGVPSRFSGSGSGTEFTLTISSLQPDDFATYYCQQYNTYWTFGQGTKVEIK
HAE attack reduction (HAE attacks [2]): 87%
patients attack free (HAE attacks [2]): 44%
